Where “and” joins values, the source holds several entries; their conditions need not be identical. Equal entries are not always repeated.
Legend:
Type in all cases: cell-based
[1] = tested on: normal flora found in the milks; assay: Growth of non-probiotic microorganisms in Acidophilus milk (standard plate counts)
Experimental: 31, 2013. […] The Acidophilus milk was low fat (Darigold). […] This was performed to look at how MSM would affect the normal flora found in the milks. Day 0 was the day the samples were setup for the start of the study. The Acidophilus plus Bifidus milk started with a higher count at Day 0 than what is typically expected. This caused the end values to be elevated. The Acidophilus milk product at Day 0 was at expected values. The Acidophilus milk maintained adequate growth rates through out the study and were equivalent to typical growth rates seen in milk products.

Salmonella typhimurium = assay: USP Antimicrobial Effectiveness Test (AET) of MSM supplemented TSB; parameters: key: Colonies too numerous to count (TNTC); conditions: 48 hrs
[2] = tested on: Swine-like H1N1 Influenza A virus strain A/California/04/2009
[3] = tested on: Lactobacillus acidophilus ATCC #4356; assay: Lactobacillus acidophilus growth and recovery in a simulated intestinal tract environment
[4] = tested on: Acidophilus plus Bifidus milk microorganisms; assay: Growth in Acidophilus plus Bifidus milk fortified with MSM; conditions: A/B milk
[5] = tested on: Herpes Simplex Virus type 1 (ATCC #VR-260)
Lactobacillus rhamnosus = assay: Growth of Lactobacillus rhamnosus in MRS broth fortified with MSM; conditions: for Growth (colony forming units): 0.04% MSM in MRS broth, 0-72 hours
Experimental: Each organism (Lactobacillus rhamnosus, Lactobacillus acidophilus, and Bifidobacterium bifidum) was grown in MRS bacterial growth medium (broth) and plated on MRS agar at different time intervals. Results are expressed in colony forming units per milliliter (cfu/mL). […] All bacterial organisms were incubated at 35° C. +/−2° C. for the duration of the study. […] All preparations and plating were conducted at room temperature. […] Test samples were plated in triplicate at each test date and the averages are reported.

[6] = tested on: Rhinovirus type 14 (ATCC #VR-284)

SMILES: CS(C)(=O)=O [MSM, Methylsulfonylmethane]
- Growth of non-probiotic microorganisms in Acidophilus Milk ([1]; A/B milk, […] MSM, Day 3): 480 cfu per mL
- Growth of non-probiotic microorganisms in Acidophilus Milk ([1]; A/B milk, […] MSM, Day 7): 570 cfu per mL
- Growth of non-probiotic microorganisms in Acidophilus Milk ([1]; A/B milk, […] MSM, Day 14): 1460 cfu per mL
- Growth of non-probiotic microorganisms in Acidophilus Milk ([1]; A/B milk, […] MSM, Day 21): 3500 cfu per mL
- Growth of non-probiotic microorganisms in Acidophilus Milk ([1]; A/B milk, […] MSM, Day 28): 110000 cfu per mL
- Growth of non-probiotic microorganisms in Acidophilus Milk ([1]; acidophilus milk, 0.50% MSM, Day 0): 20 cfu per mL and 30 cfu per mL
- Growth of non-probiotic microorganisms in Acidophilus Milk ([1]; acidophilus milk, 0.50% MSM, Day 3): 10 cfu per mL
- Growth of non-probiotic microorganisms in Acidophilus Milk ([1]; acidophilus milk, 0.50% MSM, Day 7): 10 cfu per mL
- Growth of non-probiotic microorganisms in Acidophilus Milk ([1]; acidophilus milk, 0.50% MSM, Day 14): 20 cfu per mL
- Growth of non-probiotic microorganisms in Acidophilus Milk ([1]; acidophilus milk, 0.50% MSM, Day 21): 20 cfu per mL and 40 cfu per mL
- Growth of non-probiotic microorganisms in Acidophilus Milk ([1]; acidophilus milk, 5% MSM, Day 0): 10 cfu per mL and 20 cfu per mL
- Growth of non-probiotic microorganisms in Acidophilus Milk ([1]; acidophilus milk, 5% MSM, Day 3): 10 cfu per mL
- Growth of non-probiotic microorganisms in Acidophilus Milk ([1]; acidophilus milk, 5% MSM, Day 7): 10 cfu per mL and 20 cfu per mL
- Growth of non-probiotic microorganisms in Acidophilus Milk ([1]; acidophilus milk, 5% MSM, Day 14): 20 cfu per mL and 10 cfu per mL
- Growth of non-probiotic microorganisms in Acidophilus Milk ([1]; acidophilus milk, 5% MSM, Day 21): 20 cfu per mL and 10 cfu per mL
- Growth of non-probiotic microorganisms in Acidophilus Milk ([1]; acidophilus milk, 5% MSM, Day 28): 10 cfu per mL
- Growth of non-probiotic microorganisms in Acidophilus Milk ([1]; acidophilus milk, […] MSM, Day 0): 10 cfu per mL
- Growth of non-probiotic microorganisms in Acidophilus Milk ([1]; acidophilus milk, […] MSM, Day 14): <10 cfu per mL
- AET test results (microorganism count) (Salmonella typhimurium; 1:100 dilution of MSM in TSB): TNTC
- AET test results (microorganism count) (Salmonella typhimurium; 1:1000 dilution of MSM in TSB): TNTC
- Average Log Stimulation [2]: 0.17 log10
- Average Percent Stimulation [2]: 32.39%
- Average TCID50 [2]: 3.67 log10 and 4.42 log10 and 4.67 log10 and 5.00 log10 and 4.58 log10 and 4.17 log10
- Log Stimulation [2]: 0.17 log10
- Percent Stimulation [2]: 32.39%
- TCID50 [2]: 3.75 log10 and 3.50 log10 and 4.00 log10 and 4.50 log10 and 4.25 log10 and 4.75 log10 and 5.00 log10
- log10 reduction [2]: 0.66 log10 and 0.41 log10
- reduction of virus population [2]: more than 1.0 log10
- log increase in the next 8 hours after hour 48 ([3]; 5.0% MSM): 3.16 logs
- time to substantial growth rate increase after hour 24 ([3]; 5.0% MSM): 6 h
- log growth of Lactobacillus acidophilus ([3]; 5.0% MSM, hour 36): 8.65 logs
- Log Growth of Lactobacillus acidophilus ([3]; 5.0% MSM, 20 min Gastric): <1.00 log
- Log Growth of Lactobacillus acidophilus ([3]; 5.0% MSM, Hour 3, simulated intestinal fluid): 1.62 log
- Log Growth of Lactobacillus acidophilus ([3]; 5.0% MSM, Hour 8, simulated intestinal fluid): 2.33 log
- Log Growth of Lactobacillus acidophilus ([3]; 5.0% MSM, Hour 24, simulated intestinal fluid): 6.39 log
- Log Growth of Lactobacillus acidophilus ([3]; 5.0% MSM, Hour 30, simulated intestinal fluid): 6.63 log
- Log Growth of Lactobacillus acidophilus ([3]; 5.0% MSM, Hour 36, simulated intestinal fluid): 8.65 log
- Log Growth of Lactobacillus acidophilus ([3]; 5.0% MSM, Hour 48, simulated intestinal fluid): 10.17 log
- Log Growth of Lactobacillus acidophilus ([3]; 5.0% MSM, Hour 54, simulated intestinal fluid): 13.33 log
- Log Growth of Lactobacillus acidophilus ([3]; 5.0% MSM, Hour 60, simulated intestinal fluid): 12.76 log
- Log Growth of Lactobacillus acidophilus ([3]; 5.0% MSM, Hour 72, simulated intestinal fluid): 12.78 log
- Log Growth of Lactobacillus acidophilus ([3]; 5.0% MSM, Starting Inoculum (milk)): 7.02 log
- log increase in the next 8 hours after hour 48 ([3]; […] MSM): 2.07 logs
- Log Growth of Lactobacillus acidophilus ([3]; […] MSM, 20 min Gastric): <1.00 log
- Log Growth of Lactobacillus acidophilus ([3]; […] MSM, Starting Inoculum (milk)): 6.86 log
- Log Growth of Lactobacillus acidophilus in Milk fortified with MSM ([4]; hour 0): 6.41 log
- Log Growth of Lactobacillus acidophilus in Milk fortified with MSM ([4]; hour 8): 8.67 log
- Log Growth of Lactobacillus acidophilus in Milk fortified with MSM ([4]; hour 24): 9.16 log
- Log Growth of Lactobacillus acidophilus in Milk fortified with MSM ([4]; hour 56): 8.56 log
- Log Growth of Lactobacillus acidophilus in Milk fortified with MSM ([4]; hour 96): 8.61 log
- Log Growth of Lactobacillus acidophilus in Milk fortified with MSM ([4]; hour 104): 8.92 log
- Average TCID50 [5]: 3.17 log10 and 4.67 log10 and 4.33 log10 and 4.08 log10 and 4.83 log10 and 5.00 log10 and 5.42 log10
- reduction of virus population [5]: more than 1.0 log10
- Growth (colony forming units) (Lactobacillus rhamnosus; 0 hours of incubation): 1.7 × 10^6 cfu/mL
- Growth (colony forming units) (Lactobacillus rhamnosus; 12 hours of incubation): 2.1 × 10^7 cfu/mL
- Growth (colony forming units) (Lactobacillus rhamnosus; 24 hours of incubation): 1.5 × 10^9 cfu/mL
- Growth (colony forming units) (Lactobacillus rhamnosus; 36 hours of incubation): 1.8 × 10^9 cfu/mL
- Growth (colony forming units) (Lactobacillus rhamnosus; 48 hours of incubation): 2.1 × 10^9 cfu/mL
- Growth (colony forming units) (Lactobacillus rhamnosus; 60 hours of incubation): 2.6 × 10^9 cfu/mL
- recovery higher than the 0% control (Lactobacillus rhamnosus; 0.2% MSM, first 12 hours): 41%
- recovery higher than the 0% control (Lactobacillus rhamnosus; 1% MSM, first 12 hours): 47%
- recovery more than the 0% control (Lactobacillus rhamnosus; all MSM samples, first 12 hours): at least 12%
- Average Log Stimulation [6]: 0.053 log10 and 0.11 log10
- Average Percent Stimulation [6]: 11.49% and 22.38%
- Average TCID50 [6]: 4.42 log10 and 5.00 log10 and 5.58 log10 and 5.42 log10 and 5.67 log10 and 5.25 log10
- Log Stimulation [6]: 0.08 log10 and 0.00 log10 and 0.17 log10
- TCID50 [6]: 4.25 log10 and 4.50 log10 and 4.75 log10 and 5.00 log10 and 5.25 log10 and 5.50 log10 and 6.00 log10 and 5.75 log10

From patent US9487749B2 (priority 2009, dated 2016)
